Assay results: patent publication US20240131045A1, “METHODS FOR TREATMENT OF VIRAL INFECTIONS” (priority 2022, published 2024)
Like-named read-outs stand apart in the source and are kept apart here.

Experiments:
[1] = in vivo; details: monkey
[2] = both, human, in vivo
[3] = human, in vivo
[4] = human, in vivo, 500 mg
[5] = Urine PK and renal clearance of compound 1, Phase 1 study
[6] = Phase 1 study, safety and tolerability in healthy participants
[7] = Intracellular PK of compound A (GS-443902) in PBMCs, Phase 1 study; details: healthy participants
[8] = Phase 1 single- and multiple-ascending dose study, compound 1 plasma PK in healthy participants
[9] = human, in vivo; remark: listed apart in the source
Description: To note, eGFR was estimated using Modification of Diet in Renal Disease (MDRD) equation shown below. Furthermore, participants with kidney failure who were on dialysis are not included in this regression analysis.

SMILES: N#C[C@@]1(c2ccc3c(N)ncnn23)O[C@H](CO)[C@@H](O)[C@H]1O [compound 1]
- AUC(0-t) [1]: 18200 to 36400 ng·h/mL

SMILES: CC(C)C(=O)OC[C@H]1O[C@@](C#N)(c2ccc3c(N)ncnn23)[C@H](O)[C@@H]1O [compound 16, obeldesivir]
- compound 1 terminal plasma elimination half-life [2]: 6 to 7 h
- Compound 1 plasma AUC (AUCinf) ([2]; 100 mg): 3700 ng·h/mL
- Compound 1 plasma Cmax ([2]; 100 mg): 570 ng/mL
- Compound 1 plasma t1/2 ([2]; 100 mg): 5.85 h
- Compound 1 plasma AUC (AUCinf) ([2]; 300 mg): 10,400 h · ng/mL
- Compound 1 plasma Cmax ([2]; 300 mg): 1830 ng/mL
- Compound 1 plasma Tmax ([2]; 300 mg): 0.78 h
- Compound 1 plasma Cmax ([2]; 500 mg): 3820 ng/mL
- Compound 1 plasma AUC (AUCD1) ([2]; 900 mg): 32,000 h · ng/mL
- Compound 1 plasma AUC (AUCinf) ([2]; 900 mg): 34,600 h · ng/mL
- Compound 1 plasma AUC (AUCtau) ([2]; 900 mg): 35,700 h · ng/mL
- Compound 1 plasma Tmax ([2]; 900 mg): 1.5 h
- Compound 1 plasma t1/2 ([2]; 900 mg): 7.36 h
- Compound 1 plasma AUC (AUCinf) ([2]; 1600 mg): 48,300 h · ng/mL
- Compound 1 plasma Cmax ([2]; 1600 mg): 7170 ng/mL
- Compound 1 plasma Tmax ([2]; 1600 mg): 1.5 h
- Compound 1 plasma t1/2 ([2]; 1600 mg): 15.7 h
- plasma half-life of metabolite compound 1 ([2]; po): ~6 h
- compound 1 metabolite renal clearance [3]: 150 to 180 mL/min
- Compound 1 plasma AUC0-24 [4]: 20,903 h · ng/mL
- Compound 1 plasma AUCinf [4]: 22,100 h · ng/mL
- Compound 1 plasma AUClast [4]: 22,000 h · ng/mL
- Compound 1 plasma Cmax [4]: 3600 ng/mL
- Compound 1 plasma t1/2 [4]: 6.3 h
- compound 16 in urine ([5]; in vivo): not detectable
- AE ([6]; 500 mg BID (n = 6)): 2 n
- AE related to study drug ([6]; 500 mg BID (n = 6)): 1 n
- Grade 2 creatinine clearance decrease ([6]; 500 mg BID (n = 6)): 0 n
- Grade 2 laboratory abnormalities ([6]; 500 mg BID (n = 6)): 0 n
- Grade 3 laboratory abnormalities ([6]; 500 mg BID (n = 6)): 0 n
- Grade 3 lipase increase ([6]; 500 mg BID (n = 6)): 0 n
- Grade ≥3 AE ([6]; 500 mg BID (n = 6)): 0 n
- AE ([6]; 900 mg QD (n = 6)): 1 n
- AE related to study drug ([6]; 900 mg QD (n = 6)): 0 n
- Grade 2 creatinine clearance decrease ([6]; 900 mg QD (n = 6)): 2 n
- Grade 2 laboratory abnormalities ([6]; 900 mg QD (n = 6)): 2 n
- Grade 3 laboratory abnormalities ([6]; 900 mg QD (n = 6)): 0 n
- Grade 3 lipase increase ([6]; 900 mg QD (n = 6)): 0 n
- Grade ≥3 AE ([6]; 900 mg QD (n = 6)): 0 n
- participants with headache (Grade 1) attributed to study drug ([6]; 2 of 8 participants, Cohort 5 (500 mg BID for 5 days)): 25%
- participants with contact dermatitis ([6]; 2 of 48 participants): 4.2%
- participants with study drug-related AEs (headaches) ([6]; 2 of 58 participants who received compound 16): 3.4%
- participants with headache ([6]; 3 of 48 participants): 6.3%
- participants with decreased creatinine clearance ([6]; 6 of 8 participants, Cohort 4 (1,600 mg single dose)): 75%
- participants with treatment-emergent adverse events (TEAEs) ([6]; 10 of 48 participants, compound 16 or placebo, Cohorts 1-6): 21%
- participants with decreased creatinine clearance ([6]; 13 of 48 participants overall): 27%
- participants with a decrease in creatinine clearance ([6]; 18 of 58 participants who received compound 16): 31%
- participants with graded postbaseline laboratory abnormalities ([6]; 25 of 48 participants): 52.1%
- Grade 3 or higher AEs ([6]; 48 participants, Cohorts 1-6): no Grade 3 or higher AEs
- serious AEs ([6]; 48 participants, Cohorts 1-6): no serious AEs
- Grade 3 laboratory abnormality (lipase elevation at Day 3) ([6]; Cohort 2 (300 mg single dose)): one Grade 3 laboratory abnormality
- changes in vital signs, electrocardiograms (ECGs), visual acuity, or fundoscopic examinations ([6]; Cohorts 1-6): no clinically relevant changes
- safety and tolerability ([6]; Example 2, Cohorts 1-6, compound 16 or placebo): safe and well tolerated
- safety and tolerability ([6]; Example 4, healthy participants): safe and well tolerated
- AE ([6]; Fasted 500 mg (n = 11)): 3 n
- AE related to study drug ([6]; Fasted 500 mg (n = 11)): 1 n
- Grade 2 creatinine clearance decrease ([6]; Fasted 500 mg (n = 11)): 2 n
- Grade 2 laboratory abnormalities ([6]; Fasted 500 mg (n = 11)): 2 n
- Grade 3 laboratory abnormalities ([6]; Fasted 500 mg (n = 11)): 0 n
- Grade 3 lipase increase ([6]; Fasted 500 mg (n = 11)): 0 n
- Grade ≥3 AE ([6]; Fasted 500 mg (n = 11)): 0 n
- AE ([6]; Fed 500 mg (n = 11)): 1 n
- AE related to study drug ([6]; Fed 500 mg (n = 11)): 0 n
- Grade 2 creatinine clearance decrease ([6]; Fed 500 mg (n = 11)): 5 n
- Grade 2 laboratory abnormalities ([6]; Fed 500 mg (n = 11)): 5 n
- Grade 3 laboratory abnormalities ([6]; Fed 500 mg (n = 11)): 0 n
- Grade 3 lipase increase ([6]; Fed 500 mg (n = 11)): 0 n
- Grade ≥3 AE ([6]; Fed 500 mg (n = 11)): 0 n
- AE ([6]; single dose 100 mg (n = 6)): 1 n
- AE related to study drug ([6]; single dose 100 mg (n = 6)): 0 n
- Grade 2 creatinine clearance decrease ([6]; single dose 100 mg (n = 6)): 0 n
- Grade 2 laboratory abnormalities ([6]; single dose 100 mg (n = 6)): 1 n
- Grade 3 laboratory abnormalities ([6]; single dose 100 mg (n = 6)): 0 n
- Grade 3 lipase increase ([6]; single dose 100 mg (n = 6)): 0 n
- Grade ≥3 AE ([6]; single dose 100 mg (n = 6)): 0 n
- AE ([6]; single dose 300 mg (n = 6)): 0 n
- AE related to study drug ([6]; single dose 300 mg (n = 6)): 0 n
- Grade 2 creatinine clearance decrease ([6]; single dose 300 mg (n = 6)): 1 n
- Grade 2 laboratory abnormalities ([6]; single dose 300 mg (n = 6)): 1 n
- Grade 3 laboratory abnormalities ([6]; single dose 300 mg (n = 6)): 1 n
- Grade 3 lipase increase ([6]; single dose 300 mg (n = 6)): 1 n
- Grade ≥3 AE ([6]; single dose 300 mg (n = 6)): 0 n
- AE ([6]; single dose 900 mg (n = 6)): 0 n
- AE related to study drug ([6]; single dose 900 mg (n = 6)): 0 n
- Grade 2 creatinine clearance decrease ([6]; single dose 900 mg (n = 6)): 2 n
- Grade 2 laboratory abnormalities ([6]; single dose 900 mg (n = 6)): 2 n
- Grade 3 laboratory abnormalities ([6]; single dose 900 mg (n = 6)): 0 n
- Grade 3 lipase increase ([6]; single dose 900 mg (n = 6)): 0 n
- Grade ≥3 AE ([6]; single dose 900 mg (n = 6)): 0 n
- AE ([6]; single dose 1600 mg (n = 6)): 2 n
- AE related to study drug ([6]; single dose 1600 mg (n = 6)): 0 n
- Grade 2 creatinine clearance decrease ([6]; single dose 1600 mg (n = 6)): 6 n
- Grade 2 laboratory abnormalities ([6]; single dose 1600 mg (n = 6)): 6 n
- Grade 3 laboratory abnormalities ([6]; single dose 1600 mg (n = 6)): 0 n
- Grade 3 lipase increase ([6]; single dose 1600 mg (n = 6)): 0 n
- Grade ≥3 AE ([6]; single dose 1600 mg (n = 6)): 0 n
- intracellular concentrations of compound A in PBMCs versus dose [7]: Dose-proportional increases
- target therapeutic exposures of plasma compound 1 and intracellular compound A ([8]; 900 mg QD and 500 mg BID for 5 days, respectively): reached or exceeded
- dose proportionality of compound 1 PK ([8]; 1600 mg dose): less than dose-proportional increases
- dose proportionality of compound 1 PK ([8]; 100 to 900 mg range): linear and dose-proportional PK
- compound 16 prodrug levels in plasma ([8]; healthy participants): either undetectable or low and transient

SMILES: CCC(CC)COC(=O)[C@H](C)N[P@](=O)(OC[C@H]1O[C@@](C#N)(c2ccc3c(N)ncnn23)[C@H](O)[C@@H]1O)Oc1ccccc1 [remdesivir]
- plasma increase of compound 1 AUCinf [9]: ~35%
- plasma increase of compound 1 Cmax [9]: ~10%
- compound 1 renal clearance (CLr) after remdesivir or compound 16 administration ([5]; amount excreted in urine over the corresponding plasma AUC): comparable
